Reference: PubChem BioAssay AID256 (DTP/NCI, 2004)
“And” between values parts separate entries of the source, which are not always exact repeats. Identical values can stand only once. Inconclusive results and toxic doses are left out. The calls were made as follows: active = survival T/C of 150% or more; inactive = T/C below 125% in these data.

Test system: CD2F1 mice, L1210 leukemia ip, survival T/C
Assay: NCI In Vivo Anticancer Drug Screen. Data for tumor model L1210 Leukemia (intraperitoneal) in CD2F1 (CDF1) mice
Conditions: endpoint: mean survival time, higher = longer survival
Summary of the method: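 Ratio T/C, where T is the treated-group value and C the vehicle-dosed control value, from mice implanted with a transplantable tumor.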

[1] = dose: 100.0 mg/kg/injection, schedule: Q01DX001 (ip), vehicle: saline
[2] = dose: 100.0 mg/kg/injection, schedule: Q01DX001 (ip), vehicle: saline with Tween-80
[3] = dose: 100.0 mg/kg/injection, schedule: Q01DX009 (ip), vehicle: saline with Tween-80

Measured: T/C

COC1C(CO)OC(O)C(N)C1OC (stereo not given)
inactive: [1] 103 % of control | dose: 200.0 mg/kg/injection, schedule: Q01DX001 (ip), vehicle: saline 103 % of control | dose: 400.0 mg/kg/injection, schedule: Q01DX001 (ip), vehicle: saline 97 % of control

CC1CC[N+](C)(CC(=O)c2ccc(-c3ccc(C(=O)C[N+]4(C)CCC(C)CC4)cc3)cc2)CC1 (stereo not given)
inactive: dose: 0.02 mg/kg/injection, schedule: Q04DX003 (ip), vehicle: Klucel (hydroxypropylcellulose) (HPC) 96 % of control | dose: 0.04 mg/kg/injection, schedule: Q04DX003 (ip), vehicle: Klucel (hydroxypropylcellulose) (HPC) 98 % of control | dose: 0.08 mg/kg/injection, schedule: Q04DX003 (ip), vehicle: Klucel (hydroxypropylcellulose) (HPC) 87 % of control and 95 % of control

CC(CCCC#N)[N+](=O)[O-] (stereo not given)
inactive: dose: 5.0 mg/kg/injection, schedule: Q01DX001 (ip), vehicle: saline 102 % of control | dose: 10.0 mg/kg/injection, schedule: Q01DX001 (ip), vehicle: saline 96 % of control | dose: 20.0 mg/kg/injection, schedule: Q01DX001 (ip), vehicle: saline 102 % of control | dose: 40.0 mg/kg/injection, schedule: Q01DX001 (ip), vehicle: saline 102 % of control | [1] 98 % of control

COC1OC2COC(c3ccccc3)OC2/C(=N/O)C1[n+]1ccccc1 (stereo not given)
inactive: dose: 25.0 mg/kg/injection, schedule: Q01DX001 (ip), vehicle: saline with Tween-80 94 % of control | dose: 50.0 mg/kg/injection, schedule: Q01DX001 (ip), vehicle: saline with Tween-80 107 % of control | [2] 98 % of control and 102 % of control

Cc1cn(CC(=O)c2cc3ccccc3[nH]2)c(=O)[nH]c1=O
inactive: dose: 100.0 mg/kg/injection, schedule: Q04DX002 (ip), vehicle: saline with Tween-80 93 % of control | dose: 200.0 mg/kg/injection, schedule: Q04DX002 (ip), vehicle: saline with Tween-80 93 % of control | dose: 400.0 mg/kg/injection, schedule: Q04DX002 (ip), vehicle: saline with Tween-80 101 % of control

O=C1CCCN1C1CC2c3ccccc3C1c1cccc[n+]12 (stereo not given)
inactive: dose: 5.0 mg/kg/injection, schedule: Q04DX003 (ip), vehicle: saline with Tween-80 95 % of control | dose: 10.0 mg/kg/injection, schedule: Q04DX003 (ip), vehicle: saline with Tween-80 95 % of control | dose: 20.0 mg/kg/injection, schedule: Q04DX003 (ip), vehicle: saline with Tween-80 97 % of control

O=c1scc(-c2ccc([N+](=O)[O-])cc2)s1
inactive: dose: 12.5 mg/kg/injection, schedule: Q04DX003 (ip), vehicle: Klucel (hydroxypropylcellulose) (HPC) 104 % of control | dose: 25.0 mg/kg/injection, schedule: Q04DX003 (ip), vehicle: Klucel (hydroxypropylcellulose) (HPC) 91 % of control

c1ccc(-c2cc3ccccc3c(-c3ccccc3)c2-c2ccccc2)cc1
inactive: dose: 150.0 mg/kg/injection, schedule: Q01DX001 (ip), vehicle: other 90 % of control | dose: 300.0 mg/kg/injection, schedule: Q01DX001 (ip), vehicle: other 88 % of control

CCN(CC)c1cccc(O)c1
inactive: dose: 50.0 mg/kg/injection, schedule: Q01DX009 (ip), vehicle: saline with Tween-80 92 % of control | [3] 98 % of control

CS(=O)(=O)c1nc(Cl)c(Cl)c(C#N)c1Cl
inactive: dose: 5.0 mg/kg/injection, schedule: Q01DX009 (ip), vehicle: saline with Tween-80 100 % of control | dose: 10.0 mg/kg/injection, schedule: Q01DX009 (ip), vehicle: saline with Tween-80 95 % of control | dose: 20.0 mg/kg/injection, schedule: Q01DX009 (ip), vehicle: saline with Tween-80 95 % of control

NC(=S)c1csc(CCNC(=O)c2ccccc2)n1
inactive: [2] 100 % of control | [3] 98 % of control | dose: 100.0 mg/kg/injection, schedule: Q04DX003 (ip), vehicle: saline 96 % of control | dose: 200.0 mg/kg/injection, schedule: Q01DX001 (ip), vehicle: saline with Tween-80 97 % of control | dose: 200.0 mg/kg/injection, schedule: Q01DX009 (ip), vehicle: saline with Tween-80 98 % of control | dose: 200.0 mg/kg/injection, schedule: Q04DX003 (ip), vehicle: saline 89 % of control | dose: 400.0 mg/kg/injection, schedule: Q01DX001 (ip), vehicle: saline with Tween-80 97 % of control | dose: 400.0 mg/kg/injection, schedule: Q01DX009 (ip), vehicle: saline with Tween-80 100 % of control | dose: 400.0 mg/kg/injection, schedule: Q04DX003 (ip), vehicle: saline 93 % of control

COc1ccc(C(=O)/C=C/c2ccc(O)cc2)cc1
inactive: dose: 37.5 mg/kg/injection, schedule: Q01DX009 (ip), vehicle: saline 98 % of control | dose: 75.0 mg/kg/injection, schedule: Q01DX009 (ip), vehicle: saline 102 % of control | dose: 150.0 mg/kg/injection, schedule: Q01DX009 (ip), vehicle: saline 98 % of control

c1ccc(SCN2CCN(CSc3ccccc3)CC2)cc1
inactive: dose: 100.0 mg/kg/injection, schedule: Q01DX009 (ip), vehicle: saline 91 % of control

CCN(CC)C(=O)Nc1cc2c3c(c1)CCCN3CCC2
inactive: dose: 100.0 mg/kg/injection, schedule: Q04DX003 (ip), vehicle: saline with Tween-80 98 % of control | dose: 200.0 mg/kg/injection, schedule: Q04DX003 (ip), vehicle: saline with Tween-80 96 % of control | dose: 400.0 mg/kg/injection, schedule: Q04DX003 (ip), vehicle: saline with Tween-80 87 % of control
